Results taken from US12398111B2, “Triazine compounds and pharmaceutical use thereof” (Japan Tobacco Inc., priority 2014, dated 2025).

biological target: T1, human mPGES-1 (Homo sapiens, UniProt O14684); experiment: Evaluation of human mPGES-1 enzyme inhibitory activity (PGE2 measured by HTRF, microsome fraction of CHO-S cells expressing human mPGES-1); assay type: biochemical; settings: IC50 value; microsome fraction of CHO-S cells expressing human mPGES-1, PGE2 by HTRF
T1 construct: made in house; host or cells: FreeStyle CHO-S cells (Chinese hamster ovary), transient transfection with pcDNA3.1(+)/human mPGES-1; microsome fraction used
T1 sequence (O14684 1-152): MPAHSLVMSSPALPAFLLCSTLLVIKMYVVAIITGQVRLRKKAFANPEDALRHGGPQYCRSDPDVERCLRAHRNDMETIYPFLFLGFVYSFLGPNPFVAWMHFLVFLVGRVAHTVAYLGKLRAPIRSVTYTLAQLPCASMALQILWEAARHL
Protocol: That is, the amount of PGE2 produced by human mPGES-1 in the presence of a test article was measured by the HTRF (homogeneous time resolved fluorescence) method, based on which the human mPGES-1 enzyme inhibitory activity of the test article was determined.
1) Preparation of Human mPGES-1 Expressing Cell Microsome Fraction
A DNA fragment containing human mPGES-1, which is added with a BamHI recognition cleavage sequence immediately before the translation initiation codon and an EcoRI recognition cleavage sequence immediately after the translation termination codon was amplified by the PCR (Polymerase Chain Reaction) method using a human mPGES-1 expression plasmid DNA (pME-18S/iPGES-1) prepared in-house as a template. The purified DNA fragment was digested with BamHI and EcoRI, and ligated to pcDNA3.1(+) (Invitrogen, model number V790-20), similarly digested with BamHI and EcoRI, by using a DNA Ligation kit ver.2.1 (Takara Bio, model number 6022). The human mPGES-1 expression plasmid DNA was isolated from Escherichia coli DH5a (TOYOBO, model number DNA-903) transformed with the obtained ligation product. The base sequence of human mPGES-1 cloned to a vector was determined by the Dye Terminator method by using BigDye Terminator v3.1 Cycle Sequencing Kit (Applied Biosystems, #4337455).
Human mPGES-1 expression plasmid DNA was transfected into Chinese hamster ovary-derived cells (FreeStyle CHO-S Cell, Invitrogen, #R800-07) by using a transgene reagent (FreeStyle MAX Reagent (Invitrogen, #16447-100)), and cultured with shaking (8% CO2, 37° C.) in a medium containing 8 mmol/L L-glutamine (GIBCO FreeStyle CHO Expression Medium, Invitrogen, #12651-022) for 48 hr.
The CHO-S cells were suspended in Homogenate Buffer (100 mmol/L potassium phosphate (pH 7.4), 250 mmol/L Sucrose, 100 mmol/L EDTA, complete EDTA free (Roche, #1873580)). Using an ultrasonic disruptor UD-201 (Tomy Seiko), the suspended cells were disrupted at output:3, duty cycle:50 for 30 seconds. The precipitate was removed by centrifugation (1,000×g, 5 min, 4° C.), is and the supernatant was centrifuged (5,000×g, 10 min, 4° C.). The supernatant was further centrifuged (105,000×g, 60 min, 4° C.). The obtained precipitate was suspended in Resuspension Buffer (100 mmol/L potassium phosphate (pH 7.4), 250 mmol/L sucrose, 100 mmol/L EDTA, 10% glycerol) to give a microsome fraction.
The protein concentration of the microsome fraction was measured by the Bradford method (Protein Assay Kit, Bio-Rad). The microsome fraction was rapidly frozen in liquid nitrogen and preserved at −80° C. Human mPGES-1 in the microsome fraction was detected by Western Blot using rabbit anti-mPGES-1 polyclonal antibody (ThermoFisher Scientific, #PA1-10264).
2) Evaluation of Human mPGES-1 Enzyme Inhibitory Activity
A test article solution diluted with 0.1 mol/L potassium phosphate, pH 7.4 (hereinafter to be referred to as KPB) or DMSO (Nacalai Tesque, #13407-45) was added at 5 μL/well to 96 well V-bottom plate (Corning, #3363). The final DMSO concentration during the reaction was set to 2% (v/v). Furthermore, a microsome fraction of CHO-S cells expressing human mPGES-1, which was diluted with reduced GSH (12.5 mmol/L KPB solution, SIGMA, #G6529-25G) such that the protein concentration was 5 μg/mL, was added at 20 μL/well. The amount of the microsome fraction used is the amount of microsome fraction within a range where the amount of PGE2 produced under the reaction conditions shown below and the amount of microsome fraction used show linearity. To the blank was added reduced GSH (12.5 mmol/L KPB solution) at 20 μL/well.

IC50 | SMILES
1.2 nM | CC(C)c1cccc(-c2nc(O)nc(-c3cc(CNC(=O)C(C)(C)C(F)(F)F)ccc3Cl)n2)c1 [Example 1-107]
0.9 nM | CCc1cccc(-c2nc(O)nc(-c3cc(CNC(=O)C(C)(C)C(F)(F)F)ccc3Cl)n2)c1 [Example 1-110]
1.2 nM | Cc1cccc(-c2nc(O)nc(-c3cc(CNC(=O)C(C)(C)C(F)(F)F)ccc3Cl)n2)c1 [Example 1-111]
0.9 nM | Cc1cc(-c2nc(O)nc(-c3cc(CNC(=O)C(C)(C)C(F)(F)F)ccc3Cl)n2)ccc1Cl [Example 1-112]
0.9 nM | CC(C)(C(=O)NCc1ccc(Cl)c(-c2nc(O)nc(-c3ccc(OCC(F)(F)F)cc3)n2)c1)C(F)(F)F [Example 1-113]
5.9 nM | CC(C)CCOc1ccc(-c2nc(O)nc(-c3cc(CNC(=O)C(C)(C)C(F)(F)F)ccc3Cl)n2)cc1 [Example 1-114]
0.6 nM | CSc1ccc(-c2nc(O)nc(-c3cc(CNC(=O)C(C)(C)C(F)(F)F)ccc3Cl)n2)cc1 [Example 1-115]
2 nM | CC(C)(C(=O)NCc1ccc(Cl)c(-c2nc(O)nc(-c3ccc(OCC4CCC4)cc3)n2)c1)C(F)(F)F [Example 1-116]
1.6 nM | CC(C)c1cc(-c2nc(O)nc(-c3cc(CNC(=O)C(C)(C)C(F)(F)F)ccc3Cl)n2)ccc1F [Example 1-117]
1.9 nM | CCCc1cc(-c2nc(O)nc(-c3cc(CNC(=O)C(C)(C)C(F)(F)F)ccc3Cl)n2)ccc1F [Example 1-118]
1 nM | CC(F)(F)c1ccc(-c2nc(O)nc(-c3cc(CNC(=O)C(C)(C)C(F)(F)F)ccc3Cl)n2)cc1 [Example 1-119]
0.9 nM | CCc1cc(-c2nc(O)nc(-c3cc(CNC(=O)C(C)(C)C(F)(F)F)ccc3Cl)n2)ccc1F [Example 1-124]

The remaining lines, values behind:

SMILES | IC50
CCO[C@@](C)(C(=O)NCc1ccc(Cl)c(-c2nc(O)nc(-c3ccccc3)n2)c1)C(F)(F)F [Example 1-97] | 9.1 nM
CC(C)(C(=O)NCc1ccc(Cl)c(-c2nc(O)nc(-c3cccc(OCC(F)(F)F)c3)n2)c1)C(F)(F)F [Example 1-99] | 0.7 nM
CC(C)(C(=O)NCc1ccc(Cl)c(-c2nc(O)nc(-c3cccc(C4CCC4)c3)n2)c1)C(F)(F)F [Example 1-100] | 0.9 nM
CC(C)Cc1ccc(-c2nc(O)nc(-c3cc(CC(=O)NC(C)(C)C)ccc3Cl)n2)cc1 [Example 1-101] | 5.8 nM
CCCc1cccc(-c2nc(O)nc(-c3cc(CNC(=O)C(C)(C)C(F)(F)F)ccc3Cl)n2)c1 [Example 1-102] | 0.9 nM
CO[C@](C)(C(=O)NCc1ccc(Cl)c(-c2nc(O)nc(-c3cccc(OC(F)(F)F)c3)n2)c1)C(F)(F)F [Example 1-103] | 1.3 nM
CCCc1cccc(-c2nc(O)nc(-c3cc(CNC(=O)[C@@](C)(OC)C(F)(F)F)ccc3Cl)n2)c1 [Example 1-104] | 1.5 nM
CO[C@](C)(C(=O)NCc1ccc(Cl)c(-c2nc(O)nc(-c3ccc(C)c(F)c3)n2)c1)C(F)(F)F [Example 1-105] | 0.7 nM
CO[C@](C)(C(=O)NCc1ccc(Cl)c(-c2nc(O)nc(-c3ccc(F)c(C)c3)n2)c1)C(F)(F)F [Example 1-106] | 0.7 nM
CO[C@](C)(C(=O)NCc1ccc(Cl)c(-c2nc(O)nc(-c3cccc(C(C)C)c3)n2)c1)C(F)(F)F [Example 1-108] | 0.6 nM
CC(C)COc1ccc(-c2nc(O)nc(-c3cc(CNC(=O)C(C)(C)C(F)(F)F)ccc3Cl)n2)cc1C(F)(F)F [Example 1-120] | 48 nM
CCc1cccc(-c2nc(O)nc(-c3cc(CNC(=O)[C@@](C)(OC)C(F)(F)F)ccc3Cl)n2)c1 [Example 1-121] | 1.2 nM
CO[C@](C)(C(=O)NCc1ccc(Cl)c(-c2nc(O)nc(-c3ccc(OCC(C)C)cc3)n2)c1)C(F)(F)F [Example 1-123] | 2.3 nM
Cc1cc(-c2nc(O)nc(-c3cc(CNC(=O)C4(C(F)(F)F)CCC4)ccc3Cl)n2)ccc1F [Example 1-125] | 0.8 nM
CO[C@](C)(C(=O)NCc1ccc(Cl)c(-c2nc(O)nc(-c3ccc(C(F)(F)F)cc3)n2)c1)C(F)(F)F [Example 1-126] | 0.8 nM
